pIC50: −log10 of the molar value. Like-named read-outs stand apart in the source and are kept apart here.
Columns and labels:
[1] = molecular target: T1, FGFR2 (Homo sapiens, UniProt P21802); assay: FGFR2 Biochemical Caliper Assay (KinEASE-TK kit); settings: 0.07 nM FGFR2; compound incubated with protein 10 min, reaction 45 min at RT; read-out: FGFR2 Cliper IC50
T1 construct: purchased Carna 08-134
Method: Compounds of the present invention were tested in a FGFR1, FGFR2, and FGFR3 Biochemical Caliper Assay.
(§1) Enzyme activity was monitored using KinEASE-TK kit (CisBio, Cat.No. 62TK0PEC) according to manufacturer's instructions. […] Final enzyme concentration was 0.2 nM for FGFR1 and FGFR3, 0.07 nM for FGFR2. Compounds were prepared in 10 mM DMSO and serially diluted into 10 concentrations by 3-fold dilution. Prior to the initiation of the reaction by adding TK-substrate/ATP mixture, the compounds were incubated with protein for 10 min at RT. […] Plates were quenched by adding TK-antibody-Cryptate and Sa-XL665 mixture. After 60 min in the stop solution, read the signal on microplate reader (Molecular Devices, i3x), excitation of 320 nm and emission of 615 nm and 665 nm with a […]. IC50 values were calculated using Prism 7 (GraphPad).

[2] = molecular target: T2, FGFR1 (Homo sapiens, UniProt P11362); assay: FGFR1 Biochemical Caliper Assay (KinEASE-TK kit); settings: ratio FGFR1/FGFR2 of the biochemical assay
T2 construct: purchased Carna 08-133
Method: as §1, with “Compounds of the present invention were tested in a FGFR1, FGFR2, and FGFR3 Biochemical Caliper Assay. Enzyme” for “Enzyme”

[3] = molecular target: T3, FGFR3 (Homo sapiens, UniProt P22607); assay: FGFR3 Biochemical Caliper Assay (KinEASE-TK kit); settings: ratio FGFR3/FGFR2 of the biochemical assay
T3 construct: purchased Carna 08-135
Method: as §1, with “Compounds of the present invention were tested in a FGFR1, FGFR2, and FGFR3 Biochemical Caliper Assay. Enzyme” for “Enzyme”

[4] = system: SNU16 cells; assay: SNU16 Cancer Cell Line Proliferation Assay (CellTiter-Glo); format: cell-based
Method: Compounds of the present invention were also tested in a SNU16 Cancer Cell Line Proliferation Assay.
SNU16 cells were plated in 96-well clear bottom/white plate(Costar, Cat.No. 3610) at 5000 cells/well in 100 μl medium. Test compounds were prepared in a 10 mM DMSO stock solution and serially diluted into 9 concentrations by 3-fold dilution. 0.5 μl of each concentration of compound was added into the cell culture plates and DMSO as a control. The plates were incubated for 72 h at 37° C. and 5% CO2 incubator. 50 μl CellTiter-Glo reagent (Promega, G7572) was added into each well and then the plates were shaken gently for 10 min at room temperature. Luminescence was read on microplate reader (Molecular Devices, i3x), IC50 values were calculated using Prism 7 (GraphPad).

T1 sequence (P21802 22-821): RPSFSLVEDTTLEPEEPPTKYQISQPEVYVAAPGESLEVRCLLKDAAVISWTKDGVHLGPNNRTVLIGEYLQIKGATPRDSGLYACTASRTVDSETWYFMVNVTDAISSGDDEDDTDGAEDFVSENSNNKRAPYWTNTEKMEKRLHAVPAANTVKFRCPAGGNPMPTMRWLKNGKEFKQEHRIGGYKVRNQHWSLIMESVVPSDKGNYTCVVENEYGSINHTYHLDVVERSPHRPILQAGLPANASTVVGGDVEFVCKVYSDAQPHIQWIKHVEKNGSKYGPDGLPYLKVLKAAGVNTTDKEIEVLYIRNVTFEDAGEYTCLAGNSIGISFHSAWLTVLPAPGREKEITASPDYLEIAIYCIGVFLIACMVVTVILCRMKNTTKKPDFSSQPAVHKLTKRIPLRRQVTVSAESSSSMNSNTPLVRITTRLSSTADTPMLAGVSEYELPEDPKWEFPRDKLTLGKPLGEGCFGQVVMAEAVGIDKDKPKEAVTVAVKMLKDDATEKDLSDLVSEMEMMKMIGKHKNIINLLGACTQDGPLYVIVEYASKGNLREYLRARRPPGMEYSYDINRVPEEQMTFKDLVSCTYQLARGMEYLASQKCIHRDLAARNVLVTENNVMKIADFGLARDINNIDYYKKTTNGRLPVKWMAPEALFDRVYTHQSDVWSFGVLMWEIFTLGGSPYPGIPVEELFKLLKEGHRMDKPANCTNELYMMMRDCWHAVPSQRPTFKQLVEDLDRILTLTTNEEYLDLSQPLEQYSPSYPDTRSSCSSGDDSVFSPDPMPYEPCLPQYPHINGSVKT
T2 sequence (P11362 22-822): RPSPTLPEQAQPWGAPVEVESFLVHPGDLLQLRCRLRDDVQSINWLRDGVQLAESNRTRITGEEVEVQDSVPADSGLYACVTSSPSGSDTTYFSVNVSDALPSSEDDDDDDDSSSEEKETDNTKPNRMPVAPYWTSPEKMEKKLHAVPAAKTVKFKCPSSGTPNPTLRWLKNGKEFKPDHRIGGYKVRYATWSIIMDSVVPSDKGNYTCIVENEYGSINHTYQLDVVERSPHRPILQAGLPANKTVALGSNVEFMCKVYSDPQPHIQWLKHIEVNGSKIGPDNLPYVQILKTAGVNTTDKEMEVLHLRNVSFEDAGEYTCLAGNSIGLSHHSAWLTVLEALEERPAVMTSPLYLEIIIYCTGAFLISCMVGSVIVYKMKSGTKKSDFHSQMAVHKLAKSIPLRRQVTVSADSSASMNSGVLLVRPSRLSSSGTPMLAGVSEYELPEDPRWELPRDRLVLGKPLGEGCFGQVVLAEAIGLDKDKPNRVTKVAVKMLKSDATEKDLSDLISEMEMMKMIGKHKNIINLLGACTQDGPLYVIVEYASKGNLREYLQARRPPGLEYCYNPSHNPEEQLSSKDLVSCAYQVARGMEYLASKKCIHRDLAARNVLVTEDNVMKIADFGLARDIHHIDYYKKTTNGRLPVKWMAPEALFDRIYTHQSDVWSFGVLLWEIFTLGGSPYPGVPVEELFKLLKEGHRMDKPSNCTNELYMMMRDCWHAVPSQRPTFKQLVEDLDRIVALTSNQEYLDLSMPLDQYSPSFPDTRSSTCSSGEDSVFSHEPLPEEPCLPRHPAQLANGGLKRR
T3 sequence (P22607 23-806): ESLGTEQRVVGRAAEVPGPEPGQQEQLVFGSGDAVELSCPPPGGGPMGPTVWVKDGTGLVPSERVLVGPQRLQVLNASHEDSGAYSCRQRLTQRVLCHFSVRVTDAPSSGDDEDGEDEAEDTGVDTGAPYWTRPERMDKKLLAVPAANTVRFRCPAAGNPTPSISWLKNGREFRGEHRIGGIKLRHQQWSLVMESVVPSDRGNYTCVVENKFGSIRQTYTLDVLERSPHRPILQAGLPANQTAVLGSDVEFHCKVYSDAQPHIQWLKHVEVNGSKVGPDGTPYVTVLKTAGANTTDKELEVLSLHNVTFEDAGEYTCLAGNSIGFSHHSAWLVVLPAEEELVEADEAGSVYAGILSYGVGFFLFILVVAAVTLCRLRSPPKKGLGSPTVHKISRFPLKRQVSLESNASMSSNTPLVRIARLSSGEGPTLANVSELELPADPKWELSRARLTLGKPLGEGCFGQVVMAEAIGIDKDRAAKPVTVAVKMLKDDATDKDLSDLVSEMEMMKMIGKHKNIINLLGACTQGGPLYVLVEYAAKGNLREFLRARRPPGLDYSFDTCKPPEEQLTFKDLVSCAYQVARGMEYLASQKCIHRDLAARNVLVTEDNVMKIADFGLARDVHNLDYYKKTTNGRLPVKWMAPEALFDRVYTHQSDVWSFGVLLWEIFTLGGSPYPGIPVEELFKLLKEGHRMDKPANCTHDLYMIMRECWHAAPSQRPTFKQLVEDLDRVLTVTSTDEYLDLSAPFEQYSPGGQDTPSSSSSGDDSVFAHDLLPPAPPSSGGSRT

SMILES	pIC50 [1]	Selectivity FGFR1/FGFR2 [2]	Selectivity FGFR3/FGFR2 [3]	pIC50 ([4]; Homo sapiens, SNU-16, 72 h)	pIC50 ([4]; 72 h, read-out: Cell SNU-16 IC50)
C=C(F)C(=O)Nc1ccc(-c2nn3ncnc(N)c3c2-c2ccc(C(=O)NC34CC(C3)C4)c(OC)c2)c(OC)c1 [Compound 426, 4-(4-amino-6-(4-(2-fluoroacrylamido)-2-methoxyphenyl)pyrazolo[5,1-f][1,2,4]triazin-5-yl)-N-(bicyclo[1.1.1]pentan-1-yl)-2-methoxybenzamide]	> 8.30	A+ (Selectivity of FGFR1/FGFR2 greater or equal to 500)	A (Selectivity of FGFR3/FGFR2 less than 150 but greater than or equal to 100)	≥ 8.00	
C=C(F)C(=O)Nc1ccc(-c2nn3ncnc(N)c3c2-c2ccc(C(=O)NCC(C)C)cc2)cc1 [Compound 48, 4-(4-amino-6-(4-(2-fluoroacrylamido)phe-nyl)pyrazolo[5,1-f] [1,2,4]triazin-5-yl)-N-isobutylbenzamide]	> 8.30	A+ (Selectivity of FGFR1/FGFR2 greater or equal to 500)	B (Selectivity of FGFR3/FGFR2 less than 100 but greater than or equal to 25)		≥ 8.00
C=C(F)C(=O)Nc1ccc(-n2nc3c(=O)[nH]nc(N)c3c2-c2ccc(C(=O)NC3CCC3)c(OC)c2)cc1 [Compound 137, 4-(4-amino-2-(4-(2-fluoroacrylamido)phe-nyl)-7-oxo-6,7-dihydro-2H-pyrazolo[3,4-d]pyridazin-3-yl)-N-cyclobutyl-2-methoxybenzamide]	8.00 to 8.30	A+ (Selectivity of FGFR1/FGFR2 greater or equal to 500)	A+ (Selectivity of FGFR3/FGFR2 greater or equal to 150)	7.30 to 8.00	
C#CC(=O)Nc1ccc(-c2nn3ncnc(N)c3c2-c2ccc(Oc3cccc(C)n3)c(F)c2)cc1 [Compound 410]	> 8.30	A (Selectivity of FGFR1/FGFR2 less than 500 but greater than or equal to 300)	A (Selectivity of FGFR3/FGFR2 less than 150 but greater than or equal to 100)	< 7.30	
C=C(F)C(=O)Nc1ccc(-c2nn3ncnc(N)c3c2-c2ccc(C(=O)NCC3(C(F)(F)F)CC3)c(OC)c2)c(F)c1 [Compound 361]	> 8.30	A (Selectivity of FGFR1/FGFR2 less than 500 but greater than or equal to 300)	A (Selectivity of FGFR3/FGFR2 less than 150 but greater than or equal to 100)	≥ 8.00	
C=C(F)C(=O)Nc1ccc(-c2nn3ncnc(N)c3c2-c2ccc(C(=O)NC3(C(F)(F)F)CC3)c(OC)c2)c(C(F)(F)F)c1 [Compound 432]	> 8.30	B (Selectivity of FGFR1/FGFR2 less than 300 but greater than or equal to 200)	B (Selectivity of FGFR3/FGFR2 less than 100 but greater than or equal to 25)	≥ 8.00	
C=CC(=O)Nc1ccc(-c2c(-c3ccc(C(=O)NC4CC4(F)F)c(OC)c3)c3c(N)ncc(C#N)c3n2C)cc1 (stereo not shown) [Compound 167, 4-(2-(4-acrylamidophenyl)-4-amino-7-cyano-1-methyl-1H-pyrrolo[3,2-c]pyridin-3-yl)-N-(2,2-difluorocyclopropyl)-2-methoxybenzamide]	> 8.30	A (Selectivity of FGFR1/FGFR2 less than 500 but greater than or equal to 300)	B (Selectivity of FGFR3/FGFR2 less than 100 but greater than or equal to 25)	≥ 8.00	
C=C(F)C(=O)Nc1ccc(-c2nn3ncnc(N)c3c2-c2ccc(Oc3cccc(C)n3)c(F)c2)c(F)c1 [Compound 438, N-(4-(4-amino-5-(3-fluoro-4-((6-methylpyridin-2-yl)oxy)phenyl)pyrazolo [5,1-f][1,2,4]triazin-6-yl)-3-fluorophenyl)-2-fluoroacrylamide]	> 8.30	A+ (Selectivity of FGFR1/FGFR2 greater or equal to 500)	A+ (Selectivity of FGFR3/FGFR2 greater or equal to 150)	≥ 8.00	
C=CC(=O)Nc1ccc(-c2nn3ncnc(N)c3c2-c2ccc(C(=O)NCC(F)F)c(OC)c2)cc1 [Compound 196, 4-(6-(4-acrylamidophenyl)-4-aminopyrazolo[5,1-f][1,2,4]triazin-5-yl)-N-(2,2-difluoroethyl)-2-methoxybenzamide]	> 8.30	A (Selectivity of FGFR1/FGFR2 less than 500 but greater than or equal to 300)	A+ (Selectivity of FGFR3/FGFR2 greater or equal to 150)	≥ 8.00	
C=CC(=O)Nc1ccc(-c2c(-c3ccc(C(=O)NC4CC4)c(OC)c3)c3c(N)ncc(C#N)c3n2CC(F)(F)F)cc1 [Compound 342]	> 8.30	B (Selectivity of FGFR1/FGFR2 less than 300 but greater than or equal to 200)	A+ (Selectivity of FGFR3/FGFR2 greater or equal to 150)	≥ 8.00	
C=CC(=O)Nc1ccc(-c2nn3ncnc(N)c3c2-c2ccc(C(=O)NC3CC3)c(OC)c2)c(F)c1 [Compound 155, 4-(6-(4-acrylamido-2-fluorophenyl)-4-aminopyrazolo[5,1-f] [1,2,4]triazin-5-yl)-N-cyclopropyl-2-methoxybenzamide]	> 8.30	A+ (Selectivity of FGFR1/FGFR2 greater or equal to 500)	A (Selectivity of FGFR3/FGFR2 less than 150 but greater than or equal to 100)	≥ 8.00	
C=C(F)C(=O)Nc1ccc(-c2[nH]c3c(C#N)cnc(N)c3c2-c2ccc(C(=O)NC3(C)CC3)c(OC)c2)cc1 [Compound 321, 4-(4-amino-7-cyano-2-(4-(2-fluoroacrylamido)phe-ny1)-1H-pyrrolo[3,2-c]pyridin-3-yl)-2-methoxy-N-(1-methylcyclopropyl)benzamide]	8.00 to 8.30	C (Selectivity of FGFR1/FGFR2 less than 200 but greater than or equal to 100)	A+ (Selectivity of FGFR3/FGFR2 greater or equal to 150)	≥ 8.00	
C=C(F)C(=O)Nc1ccc(-c2c(-c3ccc(C(=O)NCC(F)(F)F)c(OC)c3)c3c(N)ncc(C#N)c3n2C)c(F)c1 [Compound 151, 4-(4-amino-7-cyano-2-(2-fluoro-4-(2-fluoroacrylamido)phenyl)-1-methyl-1H-pyrrolo [3,2-c]pyridin-3-yl)-2-methoxy-N-(2,2,2-trifluoroethyl)benzamide]	8.00 to 8.30	A+ (Selectivity of FGFR1/FGFR2 greater or equal to 500)	A+ (Selectivity of FGFR3/FGFR2 greater or equal to 150)	≥ 8.00	
C=CC(=O)Nc1ccc(-c2c(-c3ccc(C(=O)NCC(F)(F)F)c(OC)c3)c3c(N)ncc(C#N)c3n2C2CC2)cc1 [Compound 351]	> 8.30	A+ (Selectivity of FGFR1/FGFR2 greater or equal to 500)	B (Selectivity of FGFR3/FGFR2 less than 100 but greater than or equal to 25)	≥ 8.00	
C=CC(=O)Nc1ccc(-c2nn3ncnc(N)c3c2-c2ccc(Oc3ccn(C)n3)c(F)c2)cc1 [Compound 402, N-(4-(4-amino-5-(3-fluoro-4-((1-methyl-1H-pyrazol-3-yl)oxy)phenyl)pyrazolo [5,1-f][1,2,4]triazin-6-yl)phenyl)acrylamide]	< 8.00	A+ (Selectivity of FGFR1/FGFR2 greater or equal to 500)	A+ (Selectivity of FGFR3/FGFR2 greater or equal to 150)	≥ 8.00	
C=C(C)C(=O)Nc1ccc(-c2c(-c3ccc(Oc4nccc(C)n4)cc3)c3c(N)ncc(C#N)c3n2C)c(F)c1 [Compound 467, N-(4-(4-amino-7-cyano-1-methyl-3-(4-((4-methylpyrimidin-2-yl)oxy)phenyl)-1H-pyrrolo[3,2-c]pyridin-2-yl)-3-fluorophenyl) methacrylamide]	< 8.00	A+ (Selectivity of FGFR1/FGFR2 greater or equal to 500)	A+ (Selectivity of FGFR3/FGFR2 greater or equal to 150)	≥ 8.00	
